Assay results: US4415495A, “5,6;8,9-Tetrahydro-7H-dibenz(d,f)azonines” (Godecke Aktiengesellschaft, priority 1981, dated 1983)

Assays:
[1] = tested on: Rats with calcium chloride induced arrhythmias; experiment: Calcium chloride induced arrhythmias in narcotised rats (prophylactic i.v. administration); format: in vivo; settings: for average period of arrhythmia: control 10.9 min.
Excerpt: By means of the intravenous infusion of a calcium chloride solution, […] induced in narcotised rats which, after termination of the infusion, continue for a certain period of time (modification of the method described by Malinow et al., Arch. Int. Pharmacodyn, 102, 266/1955). This arrhythmic phase is shortened by the prophylactic administration of antiarrhythmic drugs. […] The results of the experiments with calcium chloride induced arrhythmias on rats are summarized in the following Table I. The average period of arrhythmia is calculated from experiments with at least 10 animals.

[2] = tested on: guinea pig left ventricle; experiment: Refractory time of electrically stimulated guinea pig left ventricles (organ bath)
Method: The left ventricles of guinea pig hearts are electrically stimulated in an organ bath, the amplitude of contraction being recorded. By means of a second stimulus, the time is determined below which the heart muscle no longer reacts with a separately resolvable contraction. This time is defined as the refractory time.
The following Table II contains information concerning the maximum tested compound concentrations, as well as the average prolongation of the refractory time measured at this concentration in comparison with the initial value of, in each case, at least 6 experiments.

in vivo = settings: mouse, po
Method: The compounds according to the present invention are administered intragastrally to male mice (NMRI) with a body weight of from 20 to 25 g. Each dosage group consists of 4 animals. The LD50 values are determined after having observed the animals for 7 days.

rabbit eye = experiment: Local anesthetic action on the rabbit eye (corneal reflex); format: in vivo, rabbits; settings: for Period of Action: observation discontinued after 60 minutes
Method: The corneal reflex is induced in rabbits using a horse hair which bends with a pressure of about 250 mg (modification of the method described by M. von Frey, Beitrage zur Physiologie des Schmerzsinns, Vehr. d. Kgl. Sachs, Ges. d. Wiss. zu Leipzig, Math.-phys. Kl., 46, 185/1894; Untersuchungen uber die Sinnesfunktionen der menschlichen Haut, Leipzig, 1896). After instillation of local anesthetics into the conjunctival sac of the eye, the number of impacts with the horse hair which result in closure of the eyelid is increased. At intervals of 4 minutes, in each case a maximum of 100 successive impacts are carried out and such an action is taken as being 100%. The period of investigation is at most 60 minutes. The action of the compounds according to the present invention is compared with that of tetracaine and procainamide.
The following Table VII contains the results of the experiments on the rabbit eye. There are also given, in addition to the concentrations of the test solutions which were instilled into the conjunctival sac, the actions of the compounds in % (see description of the method), as well as their period of action. In each case, the observations were discontinued after 60 minutes.

[3] = tested on: dogs with coronary ligature; experiment: Coronary ligature on dogs (period of sinus rhythm from ECG); format: in vivo
Excerpt: Using narcotised dogs, after thoracotomy, a coronary artery (side branch of the R. interventr. post. or of the R. circumflexus) is ligatured (see. A. S. Harris, Circulation, 1, 1318/1950). The heart rhythm disturbances which occur as a result thereof are, on the day following the operation, recorded on the awake animals and treated with the compounds according to the present invention by intragastral and intravenous administration. Procainamide is used as a positive standard. From the ECG, the time is determined in which, after administration of the test compound, a sinus rhythm can be recognized.
The compounds of Examples 1 (Table III), 4 (Table IV) and 10 (Table V) were tested on dogs with a coronary ligature. All the compounds were, in each case, tested on at least 5 animals.

[4] = Oryctolagus cuniculus, topical, concentration 1.0 %
[5] = Oryctolagus cuniculus, topical, concentration 0.1 %
[6] = Oryctolagus cuniculus, topical, concentration 0.5 %
[7] = Oryctolagus cuniculus, topical, concentration 2.0 %

COc1ccc2c(c1)-c1c(ccc(OC)c1O)CC(CCc1ccccc1)N(C)CC2 (single isomer, unassigned; (+)) [Example 10, (+)-2,12-Dimethoxy-1-hydroxy-7-methyl-6-phenethyl-5,6;8,9-tetrahydro-7H-dibenz(d,f)azonine]
average period of arrhythmia ([1]; 2.5 mg/kg I.V.): 5.4 min
average prolongation of the refractory time ([2]; 4.0 × 10^-6 g/ml in the bath): 44 ms
LD50 at 168 h (in vivo): 600 mg/kg
inhibition in vivo at 1 % (rabbit eye; [4]): 100%
Period of Action (rabbit eye; concentration 1.0 %): > 60 min
average period of eurhythmia ([3]; 2 mg/kg i.v.): 40 min
average period of eurhythmia ([3]; 5 mg/kg i.g.): 105 min
average period of eurhythmia ([3]; 10 mg/kg i.g.): 169 min
average period of eurhythmia ([3]; 40 mg/kg i.g.): 185 min

COc1ccc2c(c1)-c1c(ccc(OC)c1O)CC(Cc1ccccc1)N(C)CC2 (single isomer, unassigned; (-)) [Example 1, (-)-6-Benzyl-2,12-dimethoxy-1-hydroxy-7-methyl-5,6;8,9-tetrahydro-7H-dibenz(d,f)azonine]
average period of arrhythmia ([1]; 2.5 mg/kg I.V.): 4.0 min
average prolongation of the refractory time ([2]; 8.0 × 10^-6 g/ml in the bath): 43 ms
LD50 at 168 h (in vivo): 680 mg/kg
inhibition in vivo at 0.1 % (rabbit eye; [5]): 89%
inhibition in vivo at 0.5 % (rabbit eye; [6]): 100%
Period of Action (rabbit eye; concentration 0.1 %): about 49 Min.
Period of Action (rabbit eye; concentration 0.5 %): > 60 min
average period of eurhythmia ([3]; 4 mg/kg i.v.): 62 min
average period of eurhythmia ([3]; 10 mg/kg i.g.): 49 min
average period of eurhythmia ([3]; 15 mg/kg i.g.): 99 min
average period of eurhythmia ([3]; 20 mg/kg i.g.): 105 min
average period of eurhythmia ([3]; 25 mg/kg i.g.): 198 min

COc1ccc2c(c1)-c1c(ccc(OC)c1O)CC(Cc1ccccc1Cl)N(C)CC2 (single isomer, unassigned; (-)) [Example 4, (-)-6-(2'-Chlorobenzyl)-2,12-dimethoxy-hydroxy-7-methyl-5,6;8,9-tetrahydro-7H-dibenz(d,f)azonine]
average period of arrhythmia ([1]; 5 mg/kg I.V.): 4.6 min
average period of arrhythmia ([1]; 10 mg/kg I.V.): 2.3 min
average prolongation of the refractory time ([2]; 1.6 × 10^-5 g/ml in the bath): 21 ms
LD50 at 168 h (in vivo): 1200 mg/kg
average period of eurhythmia ([3]; 4 mg/kg i.v.): 68 min
average period of eurhythmia ([3]; 40 mg/kg i.g.): 91 min
average period of eurhythmia ([3]; 60 mg/kg i.g.): 103 min
average period of eurhythmia ([3]; 80 mg/kg i.g.): 139 min

COc1ccc2c(c1)-c1c(ccc(OC)c1OC(C)=O)CC(Cc1ccccc1)N(C)CC2 (single isomer, unassigned; (-)) [Example 8, (-)-1-Acetoxy-6-benzyl-2,12-dimethoxy-7-methyl-5,6;8,9-tetrahydro-7H-dibenz(d,f)azonine]
average period of arrhythmia ([1]; 4 mg/kg I.V.): 5.7 min
average prolongation of the refractory time ([2]; 4.0 × 10^-6 g/ml in the bath): 21 ms
LD50 at 168 h (in vivo): 1200 mg/kg
inhibition in vivo at 0.5 % (rabbit eye; [6]): 74%
inhibition in vivo at 2 % (rabbit eye; [7]): 100%
Period of Action (rabbit eye; concentration 0.5 %): > 60 min
Period of Action (rabbit eye; concentration 2.0 %): > 60 min

COc1ccc2c(c1)-c1c(ccc(OC)c1O)CC(Cc1c(Cl)cccc1Cl)N(C)CC2 (single isomer, unassigned; (-)) [Example 11, (-)-6-(2',6'-Dichlorobenzyl)-2,12-dimethoxy-7-methyl-1-hydroxy-5,6;8,9-tetrahydro-7H-dibenz(d,f)azonine]
average period of arrhythmia ([1]; 8 mg/kg I.V.): 7.7 min
antiarrhythmic action / period of arrhythmia (in words) ([1]; in comparison with control animals or procainamide): just as good
average prolongation of the refractory time ([2]; 3.2 × 10^-5 g/ml in the bath): 29 ms
LD50 at 168 h (in vivo): > 1600 mg/kg
inhibition in vivo at 1 % (rabbit eye; [4]): 55%
inhibition in vivo at 2 % (rabbit eye; [7]): 100%
Period of Action (rabbit eye; concentration 1.0 %): > 60 min
Period of Action (rabbit eye; concentration 2.0 %): > 60 min

COc1ccc2c(c1)-c1c(ccc(OC)c1O)CC(Cc1cccc(C)c1)N(C)CC2 (single isomer, unassigned; (-)) [Example 12, (-)-6-(3'-Methylbenzyl)-2,12-dimethoxy-7-methyl-1-hydroxy-5,6;8,9-tetrahydro-7H-dibenz(d,f)azonine]
average period of arrhythmia ([1]; 5 mg/kg I.V.): 6.4 min
average prolongation of the refractory time ([2]; 6.4 × 10^-5 g/ml in the bath): 51 ms
LD50 at 168 h (in vivo): 1200 mg/kg
inhibition in vivo at 0.1 % (rabbit eye; [5]): 68%
inhibition in vivo at 0.25 % (rabbit eye; Oryctolagus cuniculus, topical, concentration 0.25 %): 100%
Period of Action (rabbit eye; concentration 0.1 %): about 56 Min.
Period of Action (rabbit eye; concentration 0.25 %): > 60 min

CCN(CC)CCNC(=O)c1ccc(N)cc1 [procainamide, reference compound]
average period of arrhythmia ([1]; 10 mg/kg I.V.): 7.3 min
average prolongation of the refractory time ([2]; 6.4 × 10^-5 g/ml in the bath): 7 ms
LD50 at 168 h (in vivo): 1200 mg/kg
inhibition in vivo at 0.5 % (rabbit eye; [6]): 1%
inhibition in vivo at 2 % (rabbit eye; [7]): 1%
Period of Action (rabbit eye; concentration 0.5 %): 0 min
Period of Action (rabbit eye; concentration 2.0 %): 0 min
local anesthetic activity (in words) (rabbit eye; versus procainamide and tetracaine): inactive
average period of eurhythmia ([3]; 10 mg/kg i.v.): 19 min
